Measured values as given in PubChem BioAssay AID1918996 (Molecular Pharmacology Branch, DTP, NCI, 2023).
Several values for one entry are separate records, joined by “and”; a condition that tells them apart may be missing. Equal values may be shown once.

Test system: 349418-098-R-PDC complex spheroid growth
Test: Anticancer human tumor 349418-098-R-PDC patient-derived lung adenocarcinoma cell line growth inhibition [AhR]
Details: for viability, T/C: stronger effect = lower value
Outline: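 Agents were dosed in half-log steps down from roughly clinical Cmax, or from 10 microM where Cmax was unknown, alone and with AhR antagonists. Read-out: percent test/control growth of tumor spheroids containing HUVEC and MSC stromal cells.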

[1] = curve of first compound, second compound 0.1 µM
[2] = curve of first compound, second compound 0.316 µM
[3] = curve of first compound, second compound 1 µM
[4] = curve of first compound, second compound 3.16 µM
[5] = curve of first compound, second compound 10 µM
[6] = second compound 0.1 µM, first compound 0.0316 µM
[7] = second compound 0.1 µM, first compound 0.1 µM
[8] = second compound 0.1 µM, first compound 0.316 µM
[9] = second compound 0.1 µM, first compound 1 µM
[10] = second compound 0.1 µM, first compound 3.16 µM
[11] = second compound 0.1 µM, first compound 10 µM
[12] = second compound 0.316 µM, first compound 0.0316 µM
[13] = second compound 0.316 µM, first compound 0.1 µM
[14] = second compound 0.316 µM, first compound 0.316 µM
[15] = second compound 0.316 µM, first compound 1 µM
[16] = second compound 0.316 µM, first compound 3.16 µM
[17] = second compound 0.316 µM, first compound 10 µM
[18] = second compound 1 µM, first compound 0.0316 µM
[19] = second compound 1 µM, first compound 0.1 µM
[20] = second compound 1 µM, first compound 0.316 µM
[21] = second compound 1 µM, first compound 1 µM
[22] = second compound 1 µM, first compound 3.16 µM
[23] = second compound 1 µM, first compound 10 µM
[24] = second compound 3.16 µM, first compound 0.0316 µM
[25] = second compound 3.16 µM, first compound 0.1 µM
[26] = second compound 3.16 µM, first compound 0.316 µM
[27] = second compound 3.16 µM, first compound 1 µM
[28] = second compound 3.16 µM, first compound 3.16 µM
[29] = second compound 3.16 µM, first compound 10 µM
[30] = second compound 10 µM, first compound 0.0316 µM
[31] = second compound 10 µM, first compound 0.1 µM
[32] = second compound 10 µM, first compound 0.316 µM
[33] = second compound 10 µM, first compound 1 µM
[34] = second compound 10 µM, first compound 3.16 µM
[35] = second compound 10 µM, first compound 10 µM
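Note: spheroids exposed to agents for seven days before luminescence viability read.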
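Throughout, for viability, T/C: spheroids also contain HUVEC endothelial cells and human MSC stroma.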

COc1cc(C2c3cc4c(cc3C(OC3OC5COC(C)OC5C(O)C3O)C3COC(=O)C23)OCO4)cc(OC)c1O (configuration not stated) + Cc1ccccc1N=Nc1ccc(NC(=O)c2ccnn2C)c(C)c1
IC50 [1]: 298 nM
IC50 [2]: 243 nM
IC50 [3]: 219 nM
IC50 [4]: 149 nM
IC50 [5]: < 31.6 nM
viability, T/C [6]: 89.6%
viability, T/C [7]: 98.8%
viability, T/C [8]: 47.5%
viability, T/C [9]: 20.2%
viability, T/C [10]: 15.3%
viability, T/C [11]: 13.3%
viability, T/C [12]: 103%
viability, T/C [13]: 71.3%
viability, T/C [14]: 47.2%
viability, T/C [15]: 19.9%
viability, T/C [16]: 14.6%
viability, T/C [17]: 13.7%
viability, T/C [18]: 90.4%
viability, T/C [19]: 76.6%
viability, T/C [20]: 36.5%
viability, T/C [21]: 23.9%
viability, T/C [22]: 16.6%
viability, T/C [23]: 14.6%
viability, T/C [24]: 70.1%
viability, T/C [25]: 56.9%
viability, T/C [26]: 36.6%
viability, T/C [27]: 19.1%
viability, T/C [28]: 16.3%
viability, T/C [29]: 16%
viability, T/C [30]: 46.4%
viability, T/C [31]: 44.6%
viability, T/C [32]: 30.5%
viability, T/C [33]: 22.4%
viability, T/C [34]: 17.5%
viability, T/C [35]: 15.9%

CC(C)CC(NC(=O)C(Cc1ccccc1)NC(=O)c1cnccn1)B(O)O (configuration not stated) + Cc1cncc(-c2nc(NCCc3c[nH]c4ccccc34)c3ncn(C(C)C)c3n2)c1
IC50 [1]: 1.41 nM
IC50 [2]: 1.28 nM
IC50 [3]: 1.06 nM
IC50 [4]: < 0.949 nM
IC50 [5]: < 0.949 nM
viability, T/C (second compound 0.1 µM, first compound 0.000949 µM): 70.6%
viability, T/C (second compound 0.1 µM, first compound 0.003 µM): 11.2%
viability, T/C (second compound 0.1 µM, first compound 0.00949 µM): 1.67%
viability, T/C (second compound 0.1 µM, first compound 0.03 µM): 0.88%
viability, T/C (second compound 0.1 µM, first compound 0.0949 µM): 0.78%
viability, T/C (second compound 0.1 µM, first compound 0.3 µM): 0.75%
viability, T/C (second compound 0.316 µM, first compound 0.000949 µM): 64.6%
viability, T/C (second compound 0.316 µM, first compound 0.003 µM): 8.44%
viability, T/C (second compound 0.316 µM, first compound 0.00949 µM): 1.59%
viability, T/C (second compound 0.316 µM, first compound 0.03 µM): 0.9%
viability, T/C (second compound 0.316 µM, first compound 0.0949 µM): 0.92%
viability, T/C (second compound 0.316 µM, first compound 0.3 µM): 0.62%
viability, T/C (second compound 1 µM, first compound 0.000949 µM): 54.1%
viability, T/C (second compound 1 µM, first compound 0.003 µM): 9.85%
viability, T/C (second compound 1 µM, first compound 0.00949 µM): 1.7%
viability, T/C (second compound 1 µM, first compound 0.03 µM): 0.85%
viability, T/C (second compound 1 µM, first compound 0.0949 µM): 0.77%
viability, T/C (second compound 1 µM, first compound 0.3 µM): 1.06%
viability, T/C (second compound 3.16 µM, first compound 0.000949 µM): 20.6%
viability, T/C (second compound 3.16 µM, first compound 0.003 µM): 5.89%
viability, T/C (second compound 3.16 µM, first compound 0.00949 µM): 1.01%
viability, T/C (second compound 3.16 µM, first compound 0.03 µM): 0.57%
viability, T/C (second compound 3.16 µM, first compound 0.0949 µM): 0.58%
viability, T/C (second compound 3.16 µM, first compound 0.3 µM): 0.62%
viability, T/C (second compound 10 µM, first compound 0.000949 µM): 2.07%
viability, T/C (second compound 10 µM, first compound 0.003 µM): 1.16%
viability, T/C (second compound 10 µM, first compound 0.00949 µM): 0.23%
viability, T/C (second compound 10 µM, first compound 0.03 µM): 0.14%
viability, T/C (second compound 10 µM, first compound 0.0949 µM): 0.11%
viability, T/C (second compound 10 µM, first compound 0.3 µM): 0.15%

CC1COCCN1c1cc(-c2ccnn2C)c2ccnc(-c3ccn[nH]3)c2n1 (configuration not stated)
viability, T/C (compound 0.00316 µM): 107% and 93.3% and 81%
viability, T/C (compound 0.01 µM): 106% and 116% and 95.6%
viability, T/C (compound 0.0316 µM): 96.8% and 76.4% and 101%
viability, T/C (compound 0.1 µM): 64% and 45.4% and 42.6%
viability, T/C (compound 0.316 µM): 18.7% and 15.7% and 14.7%
viability, T/C (compound 1 µM): 7.38% and 10.8% and 9.29%
IC50 (curve of compound): 142 nM and 80.8 nM and 84.4 nM

CC1COCCN1c1cc(C2(S(C)(=N)=O)CC2)nc(-c2ccnc3[nH]ccc23)n1 (configuration not stated) + CC(CO)NC(=O)c1cc(-c2ccc(Cl)cc2)nn(-c2cnn(C)c2)c1=O
IC50 [1]: 1530 nM
IC50 [2]: 1710 nM
IC50 [3]: 1410 nM
IC50 [4]: 750 nM
IC50 [5]: 1270 nM
viability, T/C [6]: 84.5%
viability, T/C [7]: 71.8%
viability, T/C [8]: 69.6%
viability, T/C [9]: 65.7%
viability, T/C [10]: 24.4%
viability, T/C [11]: 12.5%
viability, T/C [12]: 70%
viability, T/C [13]: 80.7%
viability, T/C [14]: 66.8%
viability, T/C [15]: 73.2%
viability, T/C [16]: 24.2%
viability, T/C [17]: 10.4%
viability, T/C [18]: 67.6%
viability, T/C [19]: 89.1%
viability, T/C [20]: 85.2%
viability, T/C [21]: 59%
viability, T/C [22]: 25.7%
viability, T/C [23]: 12.5%
viability, T/C [24]: 83.9%
viability, T/C [25]: 55.9%
viability, T/C [26]: 78.9%
viability, T/C [27]: 42.4%
viability, T/C [28]: 21.4%
viability, T/C [29]: 13.4%
viability, T/C [30]: 59.1%
viability, T/C [31]: 56.9%
viability, T/C [32]: 59.8%
viability, T/C [33]: 57.7%
viability, T/C [34]: 20.2%
viability, T/C [35]: 11.7%
